Source: PMC5306062, “Pharmacology and toxicology of the novel investigational agent Cantrixil (TRX-E-002-1)” (Cancer Chemotherapy and Pharmacology, 2016)
Read-outs that look alike come from different tables or passages of the source.

Tests used:
[1] = test system: co-cultures which mimic tumour heterogeneity; assay: Co-culture studies with cisplatin; assay type: cell-based, human
From the text: (§1) Tumour recurrence post-chemotherapy is caused by the regrowth of the surviving innately drug-resistant cancer stem cells that remain in tumour niches during and post-chemotherapy. The expansion of this chemo-resistant cancer cell population, coupled with upregulation of pro-survival pathways due to drug pressure, is thought to be responsible for the development of chemo-resistant recurrent disease. Further, the inherent heterogeneity of ovarian tumours consists of epithelial cells with varying potential for stemness, and a population of cancer cells with varying mesenchymal status and invasiveness potential. Therefore, to improve survival, a practical approach is the use of novel therapies that can induce cell death in these various subtypes of ovarian cancer cells. TRX-E-002-1 was assessed against ovarian cancer stem cell line OCSC2, characterised by their expression of stem cell markers including CD44 and […] [22]. A major characteristic of these cells is that they are drug resistant, able to form self-renewing spheroids in non-adherent culture, and recreate disseminated drug-resistant ovarian tumours that have a high degree of heterogeneity similar to the clinical profile observed in patients when inoculated into the peritoneal cavity of an immune-compromised mouse.

[2] = Excretion study in rats, single intraperitoneal injection; assay type: in vivo, female Sprague–Dawley rats; details: 100 mg/kg i.p.
Experimental: Excretion of TRX-E-002-1 was investigated in female Sprague–Dawley rats that received a single intraperitoneal injection of TRX-E-002-1 100 mg/kg in 20% SBECD. High levels of parent drug were measured in urine up to 24 h after dosing and in faeces up to 48 h after dosing. The glucuronide conjugate, measured as the increase in TRX-E-002-1 following treatment of the samples with beta-glucuronidase, was found at levels similar to those of parent drug in faeces (rectal contents) up to 2 h after dosing, but was barely detectable in urine. Total amounts of parent drug and glucuronide excreted in faeces and urine were not calculated, so that the relative contributions of renal and biliary excretion pathways cannot be evaluated.

[3] = test system: tumour spheroids; assay: Degradation of tumour spheroids; assay type: cell-based, human
From the text: as §1

[4] = test system: chemo-resistant CD44+/MyD88+ OCSC clones; assay: Cell death in ovarian cancer stem cell clones; assay type: cell-based, human; details: grown separately or in co-cultures
From the text: as §1

[5] = Rat GLP 28-day repeat-dose intraperitoneal toxicity study; assay type: in vivo, SD rats; details: for half-life / Tmax / NOAEL at 28 days / Cmax: rat; for half-life / Tmax / Cmax: plasma, ip; for half-life: read-out: estimated plasma elimination half-life; for NOAEL at 28 days: in vivo
Experimental: TRX-E-002-1 peak plasma concentrations were observed 0.25 – 0.5 h after dosing, except for mid-dose females on Day 1 (T max = 1 h). […] Mean plasma TRX-E-002-1 concentrations were roughly proportional to dose and were generally higher in males than in females. […] AUClast values on Day 28 tended to be higher than those on Day 1, except in low-dose males and high-dose females (Table 2), indicating slight accumulation of TRX-E-002-1 with daily dosing.
No deaths were observed during the study. […] At 10 mg/kg, reduced quantity of faeces was observed during the first 1 or 2 weeks in all animals. During the recovery period, faeces were normal, although anogenital staining persisted up to 4 days after cessation of dosing in one high-dose male.
Body weight gain was reduced over Days 1–28 in high-dose males, and during the first treatment week in mid-dose males and high-dose females. Mean body weights at the end of the dosing period were 99.5, 95.7 and 89.2% of control values in males at 0.5, 3 and 10 mg/kg/day, respectively; corresponding values in females were 99.8, 97.8 and 97.8%, respectively.
Treatment-related macroscopic abnormalities at the terminal necropsy were limited to distention of the caecum and/or colon in both sexes at 10 mg/kg/day, and obstruction of the colon in 3/10 males at this dose level. No macroscopic findings were present after the recovery period. […] Thymic weight was reduced in males at 3 and 10 mg/kg/day and was increased in females at 10 mg/kg/day. Testicular and epididymal weights were still reduced in the 10 mg/kg/day group after the recovery period.
Similar changes were also seen after the 14-day recovery period (significant in males only).
In summary, the major toxicity finding in rats dosed once daily for 28 days with TRX-E-002-1 was degeneration of seminiferous tubules in the testes and of sperm in the epididymides at the high dose of 10 mg/kg/day. Other findings including transient faecal changes, reductions in weight gain and food consumption, serum biochemical changes, macroscopic lesions in the large intestine and atrophy of the salivary glands were considered non-adverse. The NOAEL was considered to be 3 mg/kg/day in male rats and 10 mg/kg/day in females. The greater sensitivity of male rats compared with females would appear to be associated with higher cumulative systemic exposure over the 28-day repeat-dose period.

[6] = test system: micronucleated polychromatic erythrocytes (PCEs) in bone marrow; assay: Bone marrow micronucleus test; assay type: in vivo, ARC(S) Swiss mice; details: for frequency of micronucleated PCEs: female mice
Experimental: The assays were performed in compliance with GLP regulations.
The bone marrow micronucleus test was the in vivo part of the ICH genotoxicity testing battery and was conducted in ARC(S) Swiss mice. Eight groups of mice (10/sex/group) were given an intraperitoneal injection of vehicle (20% w/v SBECD) or Cantrixil at 50, 200 or 400 mg/kg and were killed 24 or 48 h later. Dimethyl-1,2 benzanthracene was used as the positive control. After preparation of the bone marrow cells, the number of micronucleated polychromatic erythrocytes (PCEs) was determined in 4000 PCEs per animal, and the proportion of PCEs in the total erythrocyte population in bone marrow was calculated from the examination of at least 500 erythrocytes as an index of bone marrow toxicity. […] The proportion of PCEs in the total erythrocyte population was decreased in both sexes at the 200 and 400 mg/kg doses at both kill times. TRX-E-002-1 is therefore considered clastogenic in this system at the described concentrations in vivo [the equivalent 200/400 mg/kg dose in a […] is 16.2 mg/kg (600 mg/m^2)/32.4 mg/kg (1200 mg/m^2) in a 60-kg human].

**Q.** Which results are given for COc1cc([C@@H]2COc3c(ccc(O)c3C)[C@@H]2c2ccc(O)cc2)cc(OC)c1O [TRX-E-002-1, (+) cis-4-(para-hydroxyphenyl)-7,4′-dihydroxy-3′,5′-dimethoxy-8-methylisoflavan]?
**A.** effect on effectiveness of cisplatin [1]: enhanced the effectiveness of cisplatin; parent drug in urine ([2]; up to 24 h after dosing): High levels; parent drug in faeces ([2]; up to 48 h after dosing): High levels; effect on tumour spheroids [3]: promoted the degradation; induction of cell death [4]: able to induce cell death; decreases in total protein, albumin and globulin ([5]; 10 mg/kg/day, males and females, end of 28-day treatment): ≤ 8%; deaths ([5]; 0.5, 3 or 10 mg/kg/day up to 28 days): No deaths; half-life ([5]; both sexes, Sprague-Dawley, Day 1, across sexes and doses): 42 to 84 min; half-life ([5]; both sexes, Sprague-Dawley, Day 28): 54 to 138 min; Tmax ([5]; both sexes, Sprague-Dawley, all groups except mid-dose females on Day 1, read-out: time of peak plasma concentrations): 15 to 30 min; NOAEL at 28 days ([5]; female, SD): 10 mg/kg/day; Cmax ([5]; female, SD, Day 1, 0.5 mg/kg, females): 33.4 ng/mL; Cmax ([5]; female, SD, Day 1, 3 mg/kg, females): 150 ng/mL; Tmax ([5]; female, Sprague-Dawley, 3 mg/kg, mid-dose females, Day 1, read-out: T max): 60 min; Cmax ([5]; female, Sprague-Dawley, Day 1, 10 mg/kg, females): 535 ng/mL; mean body weight at end of dosing period ([5]; females, 0.5 mg/kg/day): 99.8 % of control values; mean body weight at end of dosing period ([5]; females, 3 mg/kg/day): 97.8 % of control values; mean body weight at end of dosing period ([5]; females, 10 mg/kg/day): 97.8 % of control values; mean body weight after the 14-day recovery period ([5]; high-dose males): 93.6 % of control value; NOAEL at 28 days ([5]; male, SD): 3 mg/kg/day; Cmax ([5]; male, SD, Day 1, 3 mg/kg, males): 181 ng/mL; Cmax ([5]; male, SD, Day 1, 10 mg/kg, males): 780 ng/mL; Cmax ([5]; male, Sprague-Dawley, Day 1, 0.5 mg/kg, males): 35.4 ng/mL; mean body weight at end of dosing period ([5]; males, 0.5 mg/kg/day): 99.5 % of control values; mean body weight at end of dosing period ([5]; males, 3 mg/kg/day): 95.7 % of control values; mean body weight at end of dosing period ([5]; males, 10 mg/kg/day): 89.2 % of control values; clastogenicity, overall conclusion ([6]; at the described concentrations in vivo): clastogenic; proportion of PCEs in the total erythrocyte population ([6]; both sexes, 200 and 400 mg/kg, both kill times): decreased; frequency of micronucleated PCEs ([6]; 200 mg/kg i.p., 24 and 48 h): significantly increased; frequency of micronucleated PCEs ([6]; 400 mg/kg i.p., 24 h): significantly increased; slight increases in frequency of micronucleated PCEs ([6]; male mice, 200 and 400 mg/kg i.p.): not statistically significant
